The text below walks through data of patent US7968521B2, “Stable cystal of protected pseudouridine” (Yamasa Corporation, priority 2005, dated 2011).

Data set [1] can be described thus: Stability (1): storage in a sealed vessel at 60° C. and a relative humidity of 30%, percent remaining by HPLC. The format is physicochemical. Particulars: relative humidity 30%; for Percent remaining (%) Day 3 / Percent remaining (%) Day 14 / Percent remaining (%) Day 23: sealed vessel; for Percent remaining (%) Day 3: Day 3, HPLC; for Percent remaining (%) Day 14: Day 14, HPLC; for Percent remaining (%) Day 23: Day 23, HPLC. As to the method:
The crystalline 5′-O-(4,4′-dimethoxytrityl)pseudouridine produced in Example 1 was maintained in a sealed vessel at 60° C. and a relative humidity of 30%. Thereafter, the percent remaining of the compound was determined through HPLC, and the value was compared with that of the same compound in amorphous form, which had been separately prepared, so as to evaluate stability.

Data set [2] can be described thus: Stability (2): storage in a desiccator at 25±2° C. and a relative humidity of 33%, 57% or 75%, percent remaining by HPLC. Type of data set: physicochemical. Particulars: fourteen days; for Percent remaining (%) RH 33% / Percent remaining (%) RH 57% / Percent remaining (%) RH 75%: desiccator, HPLC. As to the method:
The crystalline 5′-O-(4,4′-dimethoxytrityl)pseudouridine produced in Example 1 was maintained in a desiccator at 25±2° C. and a relative humidity of 33%, 57%, or 75%. Fourteen days after, the percent remaining of the compound was determined through HPLC, and the value was compared with that of the same compound in amorphous form, which had been separately prepared, so as to evaluate stability. […] At a relative humidity of 75%, the stability clearly varied between the two samples.

With `COc1ccc(C(OC[C@H]2O[C@@H](c3c[nH]c(=O)[nH]c3=O)[C@H](O)[C@@H]2O)(c2ccccc2)c2ccc(OC)cc2)cc1` [Crystalline, 5′-O-(4,4′-dimethoxytrityl)pseudouridine], in data set [1], the “thermal stability compared with the compound of amorphous form” value is recorded as “higher thermal stability”, the “Percent remaining (%) Day 3” value is reported as 99.0%, the “Percent remaining (%) Day 14” value is 97.6% and the “Percent remaining (%) Day 23” value is on record as 95.7%. Besides, in data set [2], the “Percent remaining (%) RH 33%” value was found to be 98.7%, the “Percent remaining (%) RH 57%” value is 98.5% and the “Percent remaining (%) RH 75%” value is given as 60.7%. Besides, the “stability against moisture compared with the amorphous form” value in data set [2] (relative humidity 33%, 57% or 75%) was “more stable against moisture”.
Take `COc1ccc(C(OC[C@H]2O[C@@H](c3c[nH]c(=O)[nH]c3=O)[C@H](O)[C@@H]2O)(c2ccccc2)c2ccc(OC)cc2)cc1` [Amorphous, 5′-O-(4,4′-dimethoxytrityl)pseudouridine, reference compound]: in data set [1], the “Percent remaining (%) Day 3” value was 97.8%, the “Percent remaining (%) Day 14” value was 88.6% and the “Percent remaining (%) Day 23” value is listed as 62.1%. Moreover, in data set [2], the “Percent remaining (%) RH 33%” value amounted to 98.0%, the “Percent remaining (%) RH 57%” value worked out at 96.7% and the “Percent remaining (%) RH 75%” value came to 0.1%.
